The values below come from PMC5651866, “Halogenated Chrysins Inhibit Dengue and Zika Virus Infectivity” (Scientific Reports, 2017).

Some results are limits rather than exact numbers.

For one series, the system named is DENV2. The following applies: cell-based assay; cited from earlier work.
Series [1] is described as follows: Cytotoxicity study (CellTiter 96 AQueous One) in LLC/MK2 cells. In kind it is cell-based. The following applies: rhesus monkey; for viability at 48 h, 10 µM / viability at 48 h, 25 µM: read-out: Cells viability (%, means ± SEM) LLC/MK2. On the procedure: (§1) The cytotoxicity of active compounds was tested on LLC-MK2, Vero, THP-1, HEK-293, HepG2 and C6/36 cell lines. Each cell line was seeded at 1 × 10^4 cells per well in 96-well plates and incubated overnight. The compounds were added at the indicated concentrations and the cells were incubated for 48 h, unless indicated otherwise. Cell viability was analyzed using CellTiter 96® AQueous One Solution Cell Proliferation Assay kit (Promega, Wisconsin-Madison, USA) according to manufacturer’s protocol. The plate was read at the A 450 in a VICTORTM × 3 microplate reader (PerkinElmer, Massachusetts, USA). Percent cell viability in compound-treated wells was calculated using reference DMSO-treated cells as a 100% cell viability control. The CC50 values of LLC/MK2 cells were calculated using nonlinear regression analysis. Results were reported as means and standard error of the means (SEM) of CC50 values of three independent experiments in which each drug concentration was tested in triplicate.

The nature of series [2]: Cytotoxicity study (CellTiter 96 AQueous One) in THP-1 cells. In kind it is cell-based. The following applies: human, read-out: Cells viability (%, means ± SEM) THP-1. The protocol:
as §1

A short description of series [3]: Cytotoxicity study (CellTiter 96 AQueous One) in HEK-293 cells. The following applies: human, read-out: Cells viability (%, means ± SEM) HEK-293. In kind it is cell-based. On the procedure:
as §1

A short description of series [4]: Cytotoxicity study (CellTiter 96 AQueous One) in HepG2 cells. The class given is cell-based. The following applies: human, read-out: Cells viability (%, means ± SEM) HepG2. On the procedure:
as §1

A short description of series [5]: Cytotoxicity study (CellTiter 96 AQueous One) in Vero cells. The class given is cell-based. The following applies: African green monkey, 48 h, read-out: Cells viability (%, means ± SEM) Vero. The protocol:
as §1

The test system of the next series is Vero cells. The description is as above. The class given is cell-based. The following applies: 10 and 25 µM; in words. On the procedure: as §1
In the next series the test system is DENV2 NGC. Nature of the series: Primary screening: compounds added to DENV2 infected LLC/MK2 cells, plaque titration of culture supernatants. In kind it is cell-based, Dengue virus. The following applies: for inhibition of virus production: 10 μM and 25 μM, summary of Table 1; for inhibition at 10 µM / inhibition at 25 µM: Dengue virus, DENV2, LLC-MK2, read-out: DENV2 inhibition (%, means ± SEM). On the procedure:
In this study, we selected 8 flavonoid derivatives (Fig. 1) and tested their effect on DENV2 NGC in a LLC/MK2 cell-based system. Briefly, the compounds at final concentrations of 10 μM and 25 μM in DMSO were added to DENV2 infected LLC/MK2 cells and the effect on viral particle production was measured by plaque titration of the culture supernatants. […] We also tested cytotoxicity of FV13, FV14, and CH1 to verify the viral inhibition in LLC/MK2 cells (Table 2). The viabilities of FV13 treated cells were 81.00 ± 2.69% and 59.40 ± 2.42%, at 10, and 25 µM respectively, whereas the values for FV14 treated cells were 60.24 ± 3.31% and 60.86 ± 3.57%. We also examined Vero, THP-1, HepG2, and HEK-293 cell viabilities in the presence of selected compounds (Table 2).
LLC/MK2 cells were seeded at 5 × 10^4 cells into each well of 24-well plate and incubated overnight at 37 °C under 5% CO2. Cells were infected with DENV2 at the multiplicity of infection (M.O.I.) of 0.1, unless indicated otherwise, for 1 h with gentle rocking every 15 min. Cells were washed with phosphate buffer saline (PBS) and incubated with 1 ml of MEM medium supplemented with 1% FBS as previously described. The compounds were prepared in dimethylsulfoxide (DMSO) at the indicated concentrations before addition to viral infected cells. Supernatants were collected after 5 day incubation and analyzed by plaque titration. In primary screening, DMSO-treated cells served as the untreated control. Compounds that inhibited virus production by ≥90% were selected for further characterization.

Details of series [6]: method as in PMID 27098862, PMID 19397994. The following applies: animals and humans; in words; cited from earlier work.
The subject of a further series is LLC/MK2 cells. Briefly: Cytotoxicity study (CellTiter 96 AQueous One) in LLC/MK2 cells. The class given is cell-based. The following applies: LLC/MK2 cell viability at 120 h versus 48 h; in words. The protocol: as §1
In another series the test system is DENV1 (16007). Briefly: Antiviral efficacy (EC50) in virus infected LLC/MK2 cells, plaque assay. In kind it is cell-based, Dengue virus. The following applies: Dengue virus, DENV1, LLC-MK2.
The nature of series [7]: Cytotoxicity study, summary statements over human-derived cell lines. In kind it is cell-based. The following applies: HepG2 and HEK-293 cells, THP-1, HepG2, HEK-293, 10 and 25 µM, Table 2. On the procedure:
as §1

The next series deals with DENV3 (16562). Nature of the series: Antiviral efficacy (EC50) in virus infected LLC/MK2 cells, plaque assay. In kind it is cell-based, Dengue virus.
The next series deals with ZIKV (SV0010/15). The description is as above. The class given is cell-based, Zika virus.
The subject of a further series is DENV4 (c0036). The series is described as above. In kind it is cell-based, Dengue virus.
For the next series, the system named is DENV2 (NGC). The series is described as above. The class given is cell-based, Dengue virus.
Series [8] has as its system BHK-21/DENV2 replicon cells. Briefly: Replicon inhibition assay, RT-qPCR of replicon RNA. In kind it is cell-based. The following applies: Dengue virus, DENV2, BHK-21, 72 h, read-out: inhibition of DENV2 replicon replication. On the procedure: Next, we studied FV13 inhibition in a DENV2 replicon replication system to investigate whether translation and replication could be implicated as drug targets. BHK-21/DENV2 replicon cells[28] were treated with 5 and 10 µM FV13 and incubated for 72 h before measuring replication efficiency by quantifying replicon RNA. Ribavirin, a known dengue virus replication inhibitor[29], was used as a positive control.
After supernatant collection, the remaining cells in experimental plates were extracted for viral RNAs using TRIzol reagent (Invitrogen, California, USA) according to the manufacturer’s protocol. The samples were loaded into the Direct-zol™ RNA MiniPrep (Zymo research, California, USA) and quantified by Nanodrop spectrophotometry (Eppendorf, New York, USA). The RT-qPCR was performed with a Step-OnePlus Real-Time PCR System (Applied Biosystems, California, USA.) with 1 × Power SYBRGreen PCR Master Mix, 400 nM each of capsid primers[40] or 250 nM of NS1 primers[41] and 0.1 µg of total RNA. The reactions were then cycled at 48 °C 30 min and 95 °C 10 min, followed by 45 cycles of 95 °C for 20 s (denaturation), 55 °C for 30 s (annealing), 72 °C for 30 s (extension). Each sample was analyzed in triplicated and results were confirmed by two independent experiments.
BHK-21 cells expressing a DENV2 replicon (BHK-21/DENV2) were maintained in minimal essential medium (MEM) supplemented with 10% fetal bovine serum (FBS), and 0.3 mg/ml G418 (Bio Basic Canada, Ontario, Canada). The protocol was adapted from Boonyasuppayakorn et al., 2014 [28]. Briefly, cells (5 × 10^4/well) were seeded into 24-well plates and were incubated for 1 day at 37 °C in a humidified CO2 chamber followed by addition of the compounds in 1% DMSO at final concentrations of 5 µM and 10 µM. DMSO (1%) alone was used as the no-inhibitor control (0% inhibition) and the reference compound was ribavirin (TargetMol, Massachusetts, USA) at a final concentration of 5 µM or 10 µM. Cells were incubated at 37 °C for 72 h and lysed to quantify DENV2 replicons by RT-qPCR. Data were reported as percent inhibition compared with ribavirin, as a reference compound and DMSO, 0% inhibition. Results were confirmed by three independent experiments.
In general terms: A replicon is a self-replicating genome or part of one, used to study replication in cells.

Protocol for DENV1 (16007): (§2) Compound at various concentrations were added to virus infected LLC/MK2 cells and viral titers were accessed by plaque titration of supernatants as previously described.
(§3) LLC/MK2 cells were seeded at 5 × 10^4 cells into each well of 24-well plate and incubated overnight at 37 °C under 5% CO2. Cells were infected with DENV2 at the multiplicity of infection (M.O.I.) of 0.1, unless indicated otherwise, for 1 h with gentle rocking every 15 min. Cells were washed with phosphate buffer saline (PBS) and incubated with 1 ml of MEM medium supplemented with 1% FBS as previously described. The compounds were prepared in dimethylsulfoxide (DMSO) at the indicated concentrations before addition to viral infected cells. Supernatants were collected after 5 day incubation and analyzed by plaque titration[9].
(§4) Compounds were prepared in DMSO at 8–12 different concentrations and added to virus infected cells as previously described. Supernatants were collected and the EC50 values were calculated from nonlinear regression analysis.
Protocol for DENV2 (NGC): as §2, §3, §4
Protocol for DENV3 (16562): as §2, §3, §4
Protocol for DENV4 (c0036): as §2, §3, §4
Protocol for ZIKV (SV0010/15): as §2, §3, §4

The term EC50 denotes the midpoint of the concentration-response curve. For `O=C(O)[C@H]1O[C@@H](Oc2cc3oc(-c4ccccc4)cc(=O)c3c(O)c2O)[C@H](O)[C@@H](O)[C@@H]1O` [Baicalin], in the series with DENV2, the 50% effective concentration (EC50) is 30.2 µM.

As usually defined, the inhibition is the relative decrease from the control value, in per cent. As to `COc1ccc(/C=C/C(=O)c2ccccc2O)cc1` [CH1], the viability at 48 h, 10 µM in [1] was 61.5 ± 6.43%; in [2], 93.1 ± 4.99%; in series [3], 98.3 ± 2.95%; in series [4] it was 71 ± 1.71%; in series [5], greater than 100%. The viability at 48 h, 25 µM came out at 59.1 ± 7.42% in series [1]; 84.8 ± 2.38% in series [2]; 41.3 ± 0.54% in [3]; 35.3 ± 1.34% in [4]; 80.4 ± 9.81% in series [5]. For the same compound, the “sensitivity of Vero cells to the compound” value in the series on Vero cells is recorded as “not”. Moreover, in the series with DENV2 NGC, the “inhibition of virus production” value was greater than 99%. The inhibition at 10 µM with DENV2 NGC was 99.78 ± 0.08%. Further, in the series with DENV2 NGC, the inhibition at 25 µM amounted to 99.75 ± 0.15%.

Consider `O=C(/C=C/c1ccc(O)cc1)c1ccccc1O` [CH2], for which, in the series with DENV2 NGC, the inhibition at 10 µM came out at 52 ± 8.49% and the inhibition at 25 µM is 76 ± 4.24%.

In the case of `COc1cc(O)c2c(c1)OC(c1ccccc1)CC2=O` (stereo not shown) [FN2], in the series with DENV2 NGC, the inhibition at 10 µM came to 62 ± 2.45% and the inhibition at 25 µM is 85 ± 3%.

`O=c1cc(-c2ccccc2)oc2cc(O)cc(O)c12` [FV2, 5,7-dihydroxyflavone]: the oral bioavailability entry in series [6] was “poor”. In addition, in the series on DENV2 NGC, the inhibition at 10 µM is 43 ± 3% and the inhibition at 25 µM came out at 92.8 ± 3.06%.

`COc1cc(O)c2c(=O)c(OC)c(-c3ccccc3)oc2c1` [FV4]: in the series with DENV2 NGC, the inhibition at 10 µM turned out to be 38 ± 6.48% and the inhibition at 25 µM turned out to be 61 ± 3%.

In the case of `COc1cc(OC)c2c(=O)cc(-c3ccccc3)oc2c1` [FV6], in the series with DENV2 NGC, the inhibition at 10 µM stood at 55 ± 3% and the inhibition at 25 µM stood at 76 ± 7.35%.

Regarding `O=c1cc(-c2ccccc2)oc2c(I)c(O)c(I)c(O)c12` [FV14, 6,8-diiodo-5,7-dihydroxyflavone], in the series on LLC/MK2 cells, the “effect of long term incubation on cytotoxicity” value is “significantly greater cytotoxicity at 120 h”. The viability at 48 h, 10 µM in series [1] (LLC/MK2 cells) is 60.2 ± 3.31%; in series [2] (THP-1 cells) it was 86.1 ± 2.76%; in series [3] (HEK-293 cells), 80.5 ± 3.18%; in series [4] (HepG2 cells), 85.6 ± 3.04%; in series [5] (Vero cells) it was 45.4 ± 1.17%. Besides, the viability at 48 h, 25 µM in [1] (LLC/MK2 cells) was 60.9 ± 3.57%; in series [2] (THP-1 cells) it was 93.9 ± 7%; in series [3] (HEK-293 cells), 48.4 ± 5.76%; in series [4] (HepG2 cells), 87.01 ± 0.52%; in [5] (Vero cells), 34.1 ± 2.18%. In addition, the CC50 at 48 h in [1] (LLC/MK2 cells, 48 h incubation, read-out: CC50 (cytotoxic concentration)) was 42.5 ± 2.53 µM. The 50% effective concentration (EC50) in the series with DENV1 (16007) turned out to be 2.3 ± 0.92 µM; with DENV3 (16562) (Dengue virus, DENV3, LLC-MK2), 1.02 ± 0.31 µM; in the series on ZIKV (SV0010/15) (Zika virus, LLC/MK2, plaque assay in 24-well plates), 1.39 ± 0.11 µM; with DENV4 (c0036) (Dengue virus, DENV4, LLC-MK2) it was 1.29 ± 0.6 µM; with DENV2 (NGC) (Dengue virus, DENV2, LLC-MK2), 2.19 ± 0.31 µM. In series [7], the viability at 48 h is greater than 80%. Also, the “S.I. Selectivity index (CC50/EC50)” value in the series on DENV3 (16562) (DENV3 (16562), CC50 in LLC/MK2) amounted to 43.64; with ZIKV (SV0010/15) (CC50 in LLC/MK2) it was 32.14; in the series with DENV4 (c0036) (DENV4 (c0036), CC50 in LLC/MK2), 34.50; with DENV2 (NGC) (DENV2 (NGC), CC50 in LLC/MK2), 20.37. In addition, in the series with Vero cells, the “sensitivity of Vero cells to the compound” value is “very sensitive”. Moreover, the “inhibition of virus production” value in the series with DENV2 NGC is recorded as greater than 99%. Moreover, the inhibition at 10 µM with DENV2 NGC turned out to be 99.48 ± 0.43%. Further, in the series on DENV2 NGC, the inhibition at 25 µM is 99.63 ± 0.03%.

On to `O=C1C[C@@H](c2ccc(O)cc2)Oc2cc(O)cc(O)c21` [Naringenin], for which the concentration for a half-maximal effect (EC50) in the series with DENV2 is 18 µM.

Consider `O=c1cc(-c2ccccc2)oc2cc(O)c(O)c(O)c12` [baicalein], for which, in the series on DENV2, the EC50 was 23.9 µM.

Regarding `O=c1c(O)c(-c2ccc(O)c(O)c2)oc2cc(O)ccc12` [fisetin], the EC50 with DENV2 is 192 µM.

As to `O=c1c(O)c(-c2ccc(O)c(O)c2)oc2cc(O)cc(O)c12` [quercetin], the EC50 in the series with DENV2 is 118 µM.

On to `NC(=O)c1ncn([C@@H]2O[C@H](CO)[C@@H](O)[C@H]2O)n1` [ribavirin, reference compound], for which, in series [8], the inhibition at 5 µM is 87.4 ± 10.7% and the inhibition at 10 µM came to 89.9 ± 4.83%.
